Among the test systems are SF-539; M14; UO-31; K562; Malme-3M; UACC-257; UACC-62; SF-268; TK-10; OVCAR-5; SF-295; HCT-116; Hs-578T; MDA-MB-435; CCRF-CEM; MDA-MB-231; SK-MEL-5; DU-145.
What all share (experiment): NCI tumour cell line growth inhibition, 48 h

The source of these data is ChEMBL document CHEMBL1201862, “PubChem BioAssay data set” (2004).

The structures appear in SMILES notation.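 Test compounds were applied to cells in 96-well plates for 48 hours at 5 doses. At the GI50, growth is halved.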 Calls of active or inactive are those of the source. Rule as the data show it: active = GI50 up to about 1.1 µM and inactive = higher.

In the case of `Cc1nc2c(O)cccc2c(=O)[nH]1`, the GI50 with SF-539 was 355 µM (inactive); in the experiment with M14 it was 611 µM (inactive); in the experiment with UO-31, 282 µM (inactive); in the experiment with K562, 359 µM (inactive); in the experiment on Malme-3M, 597 µM (inactive); in the experiment on UACC-257, 555 µM (inactive). Further, the GI50 is 232 µM (inactive) in the experiment with UACC-62; 467 µM (inactive) in the experiment on SF-268; 302 µM (inactive) with TK-10; 382 µM (inactive) in the experiment with OVCAR-5; 351 µM (inactive) in the experiment with SF-295; 341 µM (inactive) in the experiment with HCT-116. Besides, the GI50 with Hs-578T was 573 µM (inactive); with MDA-MB-435, 883 µM (inactive); with CCRF-CEM, 305 µM (inactive).

On to `O=C1NC(=O)/C(=C\c2ccncc2)N1`, for which the GI50 in the experiment on SF-539, in the experiment on MDA-MB-231, in the experiment with M14, with UO-31, in the experiment on SK-MEL-5 and in the experiment with DU-145 was > 100 µM (inactive) in each case. The GI50 with UACC-257, in the experiment with TK-10, in the experiment on OVCAR-5, with SF-295, in the experiment with HCT-116 and in the experiment with MDA-MB-435 was > 100 µM (inactive) each time.

For `Nc1cnc2c(c1)c(=O)nc1n2CCS1`, the GI50 is > 100 µM (inactive) in the experiment on SF-539; 80 µM (inactive) in the experiment on MDA-MB-231; 64 µM (inactive) in the experiment on UO-31; > 100 µM (inactive) with K562; > 100 µM (inactive) in the experiment with Malme-3M; > 100 µM (inactive) with SK-MEL-5. In addition, the GI50 in the experiment with DU-145, in the experiment with UACC-257, in the experiment on UACC-62, with SF-268, with TK-10 and in the experiment with OVCAR-5 was > 100 µM (inactive) throughout. Further, the GI50 was > 100 µM (inactive) in the experiment on SF-295, > 100 µM (inactive) in the experiment on HCT-116, > 100 µM (inactive) with MDA-MB-435 and 77.6 µM (inactive) in the experiment with CCRF-CEM.

As to `N#Cc1c(-c2ccccc2)c(/C=N/c2ccc(F)cc2)c(=O)n2c1[nH]c1ccccc12`, the GI50 in the experiment on SF-539 was 30.2 µM (inactive); in the experiment on MDA-MB-231, 51.6 µM (inactive); in the experiment with M14, 14.4 µM (inactive); in the experiment with UO-31 it was 16.2 µM (inactive); in the experiment on Malme-3M, 23.6 µM (inactive); with SK-MEL-5, 25.6 µM (inactive). Besides, the GI50 with UACC-257 was 28.5 µM (inactive); in the experiment with SF-268 it was 29.4 µM (inactive); with TK-10, 20.8 µM (inactive); in the experiment with OVCAR-5, 26.7 µM (inactive); with SF-295, 18.5 µM (inactive); in the experiment with HCT-116, 14.7 µM (inactive). Moreover, the GI50 is 18.4 µM (inactive) in the experiment with MDA-MB-435 and 15.6 µM (inactive) in the experiment with CCRF-CEM.

With `Cc1cc(C)nc(NS(=O)(=O)c2ccc(NC(=O)NC(F)(F)F)cc2)n1`, the GI50 with SF-539, in the experiment on M14, in the experiment with UO-31, in the experiment on K562, in the experiment with SK-MEL-5 and with UACC-257 was > 100 µM (inactive) throughout. The GI50 in the experiment with SF-268, in the experiment on TK-10, in the experiment with OVCAR-5, in the experiment on HCT-116, in the experiment with Hs-578T and with MDA-MB-435 was > 100 µM (inactive) in each case. The GI50 in the experiment with CCRF-CEM was > 100 µM (inactive).

For `C=Cc1ccccc1C1C(C(=O)OCC)=C(C)N=C2OC(C(=O)OC)C(=O)N21` (stereo not given), the GI50 with SF-539, in the experiment on MDA-MB-231, with M14, in the experiment on UO-31, in the experiment on K562 and in the experiment with Malme-3M was > 100 µM (inactive) each time. For the same compound, the GI50 with SK-MEL-5, with DU-145, in the experiment with UACC-257, in the experiment with UACC-62, in the experiment on SF-268 and with TK-10 was > 100 µM (inactive) in each case. Besides, the GI50 in the experiment with OVCAR-5, in the experiment with SF-295, with HCT-116, in the experiment with MDA-MB-435 and in the experiment on CCRF-CEM was > 100 µM (inactive) throughout.

For `Oc1ccc2c(c1)c1c(n2CCN2CCOCC2)-c2ccccc2CC1`, the GI50 in the experiment on SF-539 is 21.3 µM (inactive); with MDA-MB-231 it was 29.9 µM (inactive); with M14, 26.3 µM (inactive); with UO-31, 23.6 µM (inactive); in the experiment with K562, 27.9 µM (inactive); in the experiment on Malme-3M, 19.6 µM (inactive). In addition, the GI50 was 32.9 µM (inactive) with UACC-257; 20.7 µM (inactive) in the experiment on UACC-62; 30 µM (inactive) in the experiment on SF-268; 29.4 µM (inactive) in the experiment with TK-10; 24.4 µM (inactive) in the experiment on OVCAR-5; 36.4 µM (inactive) in the experiment with SF-295. The GI50 was 37.2 µM (inactive) in the experiment with HCT-116, 20.6 µM (inactive) in the experiment with Hs-578T, > 10 µM (inactive) with MDA-MB-435 and 32.3 µM (inactive) in the experiment on CCRF-CEM.

Consider `O=C1OCC2=Nc3cccc4cccc(c34)N12`, for which the GI50 in the experiment with SF-539, in the experiment with MDA-MB-231, in the experiment with M14, with UO-31, with K562 and in the experiment with SK-MEL-5 was > 100 µM (inactive) each time. Besides, the GI50 in the experiment with DU-145, in the experiment with UACC-257, in the experiment with UACC-62, in the experiment with SF-268, with TK-10 and in the experiment on SF-295 was > 100 µM (inactive) throughout. Besides, the GI50 in the experiment on HCT-116 was > 100 µM (inactive); in the experiment with Hs-578T, > 100 µM (inactive); in the experiment on MDA-MB-435, > 100 µM (inactive); with CCRF-CEM it was 49.8 µM (inactive).

Turning to `Cc1ccc(C(=O)/C=C(\O)C(=O)NC23CC4CC(CC(C4)C2)C3)cc1`, the GI50 was 8.71 µM (inactive) in the experiment with MDA-MB-231; > 10 µM (inactive) in the experiment on M14; 5.64 µM (inactive) in the experiment on K562; > 10 µM (inactive) in the experiment on Malme-3M; > 10 µM (inactive) with SK-MEL-5; 9.95 µM (inactive) in the experiment on DU-145. Moreover, the GI50 is > 10 µM (inactive) in the experiment on UACC-257; 9.02 µM (inactive) in the experiment on UACC-62; > 10 µM (inactive) in the experiment on SF-268; > 10 µM (inactive) in the experiment on TK-10; 5.86 µM (inactive) in the experiment with SF-295; > 10 µM (inactive) in the experiment with MDA-MB-435. Further, the GI50 with CCRF-CEM was 5.92 µM (inactive).

With `O=C(O)CCC(NC(=O)c1ccc(CNc2nc3cc(C(F)(F)F)ccc3nc2C(=O)O)cc1)C(=O)O` (stereo not given), the GI50 in the experiment on SF-539, with M14, in the experiment with UO-31, with K562, in the experiment on Malme-3M and in the experiment on DU-145 was > 100 µM (inactive) throughout. Besides, the GI50 in the experiment with UACC-257, in the experiment with UACC-62, with SF-268, in the experiment with TK-10, with OVCAR-5 and with SF-295 was > 100 µM (inactive) in each case. For the same compound, the GI50 in the experiment with HCT-116, in the experiment on MDA-MB-435 and in the experiment with CCRF-CEM was > 100 µM (inactive) in each case.

For `BrC(c1cccc2ccccc12)c1cccc2ccccc12`, the GI50 in the experiment with MDA-MB-231 was 13.8 µM (inactive); with M14, 17.3 µM (inactive); with UO-31, 26.8 µM (inactive); in the experiment with K562 it was > 100 µM (inactive); with Malme-3M it was 4.94 µM (inactive); in the experiment on SK-MEL-5, 17.5 µM (inactive). The GI50 in the experiment with DU-145 was 13.6 µM (inactive); with UACC-257, 19.2 µM (inactive); in the experiment with UACC-62, 14.6 µM (inactive); in the experiment with SF-268, 12.1 µM (inactive); in the experiment on TK-10, 29 µM (inactive); in the experiment on OVCAR-5 it was 27.1 µM (inactive). The GI50 is 25.5 µM (inactive) with SF-295, 6.61 µM (inactive) with HCT-116 and 7.23 µM (inactive) in the experiment with MDA-MB-435.

Regarding `COc1ccc2c(c1)/C(=C\c1cccc(/C=C3/C(=O)Nc4ccc(OC)cc43)n1)C(=O)N2`, the GI50 in the experiment on SF-539 was 1.42 µM (inactive); in the experiment on M14, 1.32 µM (inactive); in the experiment with UO-31, 1.67 µM (inactive); in the experiment with K562 it was 0.412 µM (active); in the experiment with Malme-3M, 2.01 µM (inactive); in the experiment on SK-MEL-5 it was 0.834 µM (active). Also, the GI50 is 2.1 µM (inactive) in the experiment with DU-145; 2.48 µM (inactive) with UACC-257; 2.42 µM (inactive) with SF-268; 1.73 µM (inactive) in the experiment on TK-10; 1.01 µM (active) in the experiment on OVCAR-5; 2.47 µM (inactive) in the experiment with SF-295. Besides, the GI50 in the experiment with HCT-116 was 0.352 µM (active); in the experiment with Hs-578T, 4.35 µM (inactive); in the experiment on MDA-MB-435, 1.17 µM (inactive); in the experiment with CCRF-CEM it was 0.421 µM (active).

As to `O=C(CCCn1ccnc1[N+](=O)[O-])NCCn1cnc([N+](=O)[O-])n1`, the GI50 with SF-539, with M14, in the experiment on UO-31, with K562, in the experiment on Malme-3M and in the experiment with SK-MEL-5 was > 100 µM (inactive) throughout. In addition, the GI50 in the experiment with DU-145, in the experiment on UACC-257, in the experiment on UACC-62, with SF-268, in the experiment on TK-10 and with OVCAR-5 was > 100 µM (inactive) throughout. In addition, the GI50 in the experiment with SF-295, in the experiment with HCT-116, with Hs-578T, in the experiment with MDA-MB-435 and in the experiment on CCRF-CEM was > 100 µM (inactive) in each case.
